Assay results taken from article PMC3200116 (Journal of medicinal chemistry, 2011).
Counter-ions that a name gives are not always drawn.

Tests used:
α4β2 nACh receptors [1] = target: T1, α4β2 nACh receptors (Homo sapiens, UniProt P17787+P43681); type: cell-based; conditions: for positive allosteric modulation (potentiation of ACh), in words: highest concentrations evaluated; for potency as positive allosteric modulator relative to 1: compared with 1
α4β2 nACh receptors [2] = target: T1, α4β2 nACh receptors; experiment: Antagonism; type: cell-based
α7 nACh receptors = conditions: cited from earlier work
α4β2 nACh receptors [3] = target: T1, α4β2 nACh receptors; conditions: potentiation of ACh at α4β2, cited from earlier work
human α7 nACh receptors = human α7 nACh receptors (Homo sapiens, UniProt P36544); conditions: at concentrations slightly higher than those potentiating at α4β2; cited from earlier work
human α7 nACh receptors, sequence (P36544 23-502): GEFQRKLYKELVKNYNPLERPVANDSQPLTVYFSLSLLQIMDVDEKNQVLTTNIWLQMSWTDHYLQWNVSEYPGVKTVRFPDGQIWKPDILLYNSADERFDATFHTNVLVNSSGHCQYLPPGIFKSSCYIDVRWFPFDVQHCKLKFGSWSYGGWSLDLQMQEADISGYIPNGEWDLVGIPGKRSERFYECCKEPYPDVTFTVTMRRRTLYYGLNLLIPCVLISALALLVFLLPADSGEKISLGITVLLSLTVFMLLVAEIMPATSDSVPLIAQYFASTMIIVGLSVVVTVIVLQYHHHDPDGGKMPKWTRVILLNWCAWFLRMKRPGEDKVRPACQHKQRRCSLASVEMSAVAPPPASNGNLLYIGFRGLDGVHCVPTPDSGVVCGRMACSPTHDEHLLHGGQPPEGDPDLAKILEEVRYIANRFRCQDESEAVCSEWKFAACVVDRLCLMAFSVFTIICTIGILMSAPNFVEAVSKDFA

α4β4 nACh receptors = conditions: Xenopus oocytes; cited from earlier work
α3β4 nACh receptors = conditions: Xenopus oocytes; cited from earlier work
α3β2 nACh receptors = conditions: Xenopus oocytes; cited from earlier work

T1 sequence (P43681 27-627): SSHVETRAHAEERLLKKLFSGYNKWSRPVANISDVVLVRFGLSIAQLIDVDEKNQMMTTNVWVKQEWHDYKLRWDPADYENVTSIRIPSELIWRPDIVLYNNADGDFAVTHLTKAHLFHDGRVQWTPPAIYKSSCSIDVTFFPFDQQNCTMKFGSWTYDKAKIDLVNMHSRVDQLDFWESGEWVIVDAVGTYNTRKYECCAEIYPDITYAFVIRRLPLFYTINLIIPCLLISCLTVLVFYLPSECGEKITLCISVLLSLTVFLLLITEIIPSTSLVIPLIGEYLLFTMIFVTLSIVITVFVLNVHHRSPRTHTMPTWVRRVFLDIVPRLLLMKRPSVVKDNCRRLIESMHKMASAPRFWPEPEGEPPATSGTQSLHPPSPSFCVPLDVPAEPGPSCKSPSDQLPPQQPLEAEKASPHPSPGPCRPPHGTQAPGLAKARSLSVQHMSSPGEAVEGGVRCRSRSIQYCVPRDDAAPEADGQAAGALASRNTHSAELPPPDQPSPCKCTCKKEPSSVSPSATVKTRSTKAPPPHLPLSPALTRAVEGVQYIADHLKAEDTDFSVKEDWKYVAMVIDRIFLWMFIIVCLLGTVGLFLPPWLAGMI
T1 sequence (P17787 26-502): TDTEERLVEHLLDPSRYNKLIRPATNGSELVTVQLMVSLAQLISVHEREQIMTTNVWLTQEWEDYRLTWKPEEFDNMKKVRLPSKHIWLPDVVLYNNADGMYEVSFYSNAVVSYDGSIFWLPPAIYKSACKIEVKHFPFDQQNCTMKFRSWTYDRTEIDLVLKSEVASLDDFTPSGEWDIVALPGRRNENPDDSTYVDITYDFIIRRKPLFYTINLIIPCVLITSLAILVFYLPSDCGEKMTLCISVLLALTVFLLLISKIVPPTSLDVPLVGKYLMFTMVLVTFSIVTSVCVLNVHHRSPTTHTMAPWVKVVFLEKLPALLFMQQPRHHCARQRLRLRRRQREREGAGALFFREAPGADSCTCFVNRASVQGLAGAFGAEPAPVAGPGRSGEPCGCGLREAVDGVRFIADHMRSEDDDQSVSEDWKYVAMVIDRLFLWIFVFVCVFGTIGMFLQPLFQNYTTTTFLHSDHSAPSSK

CCCc1[nH]c2ccccc2c1CCNC [Compound 10, N-Methyl-2-(n-propyl)tryptamine Oxalate]
positive allosteric modulation (potentiation of ACh), in words (α4β2 nACh receptors [1]): inactivity
IC50 (α4β2 nACh receptors [2]): 18.6 µM

CNCCc1c(C(C)C)[nH]c2ccccc12 [Compound 12, N-Methyl-2-isopropyltryptamine Hydrochloride]
positive allosteric modulation (potentiation of ACh), in words (α4β2 nACh receptors [1]): inactive

CCC(C)(C)c1[nH]c2cc(Br)ccc2c1CCNC [Compound 6, N-Methyl-6-bromo-2-(1,1-dimethylpropyl)tryptamine Oxalate]
potency as positive allosteric modulator relative to 1 (α4β2 nACh receptors [1]): at least as potent, if not twice as potent, as 1

CNCCc1c[nH]c2cc(Br)ccc12 [Compound 3, N-Methyl-6-bromotryptamine]
positive allosteric modulation (potentiation of ACh), in words (α4β2 nACh receptors [1]): failed to enhance the action of ACh
IC50 (α4β2 nACh receptors [2]): 39.8 µM

C=CCc1[nH]c2cc(Br)ccc2c1CCNC [Compound 5, N-Methyl-2-allyl-6-bromotryptamine Oxalate]
positive allosteric modulation (potentiation of ACh), in words (α4β2 nACh receptors [1]): lacked potentiating activity
IC50 (α4β2 nACh receptors [2]): 3.55 µM

C=CC(C)(C)c1[nH]c2cc(Br)ccc2c1CCN [Compound 2, 6-Bromo-2-(1,1-dimethylallyl)tryptamine Hydrochloride]
potency as positive allosteric modulator relative to 1 (α4β2 nACh receptors [1]): about half as potent as 1

CCC(C)c1[nH]c2ccccc2c1CCNC (stereo not drawn) [Compound 9, N-Methyl-2-sec-butyltryptamine Oxalate]
positive allosteric modulation (potentiation of ACh), in words (α4β2 nACh receptors [1]): inactive
IC50 (α4β2 nACh receptors [2]): 16.6 µM

C=CC(C)(C)c1[nH]c2cc(Br)ccc2c1CCNC.Cl [Compound 1, des-formylflustrabromine]
potentiation of the actions of ACh at α7 (α7 nACh receptors; Xenopus oocytes): failed to potentiate
potentiation of the action of ACh in an α7 preparation (α7 nACh receptors): failed to potentiate
pEC50 originally reported (α4β2 nACh receptors [3]): ca. 6.8
EC50 (α4β2 nACh receptors [3]; read-out: EC50 originally reported): 0.12 µM
inhibition of the action of ACh in an α7 preparation (human α7 nACh receptors): inhibited
potentiation of the actions of ACh at α4β4 (α4β4 nACh receptors): failed to potentiate
potentiation of the actions of ACh at α3β4 (α3β4 nACh receptors): failed to potentiate
potentiation of the actions of ACh at α3β2 (α3β2 nACh receptors): failed to potentiate

CNCCc1c(C(C)(C)C)[nH]c2ccccc12 [Compound 11, N-Methyl-2-(tert-butyl)tryptamine Hydrogen Oxalate]
positive allosteric modulation (potentiation of ACh), in words (α4β2 nACh receptors [1]): active

CCCc1[nH]c2cc(Br)ccc2c1CCNC [Compound 4, N-Methyl-6-bromo-2-n-propyltryptamine Oxalate]
IC50 (α4β2 nACh receptors [2]): 72.4 µM
